Results published in patent US20050250709A1, “Anti-neoplastic agents, combination therapies and related methods” (Bionaut Pharmaceuticals, priority 2003, published 2005).
Structures can show the parent of a compound that is named as a salt.

How the values were obtained:
[1] = test system: EGF-responsive gene expression; assay: EGF-responsive gene expression in recovered reporter cell lines; type: cell-based
Protocol: (§1) Cancer cell lines (Panc1, for pancreatic cancer, and A549 for non-small cell lung carcinoma) were transfected with the construct depicted in FIG. 1. The retroviral vector contained a […] gene (a negative selection marker), a zeocin resistance marker (a positive selection marker) and a gene encoding beta-galactosidase “β-gal”, as a reporter gene.
Cells were grown to a significant cell density and exposed to zeocin, so as to select for cells expressing the zeocin marker in the presence of high levels of extracellular signaling. Cells were also exposed to a growth factor, such as EGF, insulin or IGF, although in some instances, the growth factor had only minor effects on gene expression compared to the generalized effect of extracellular signaling. The selected cell cultures were greatly depleted of cells by zeocin treatment, as the vast majority of cells were eliminated by the zeocin. […] Under these conditions, cells were exposed to an agent such as ganciclovir that causes lethality in TK+ cells. This selection step eliminated those cells containing a nucleic acid construct that is expressed at significant levels even in low extracellular signaling conditions. The resulting cells were then used for further study.
FIGS. 3 through 9 depict the results from a series of experiments characterizing the recovered cell lines. […]

[2] = test system: HCT-116/Colon; assay: anti-proliferative effect, HCT-116 colon cancer cell line; type: cell-based; settings: Homo sapiens
Excerpt: (§2) The inhibition of reporter activity was later correlated with an anti-proliferative effect in representative colon, lung, prostate, cervical, renal, uterine, breast, and pancreatic cancer cell lines as shown in table 1.

[3] = test system: EGF, HIF responsive cell line (HIF-responsive reporter gene); assay: reporter gene assay in EGF, HIF responsive cancer cell line; type: cell-based; settings: for effect on regulated reporter gene expression (screen): single agents, screen of thousands of compounds
Protocol: as §1
Cells were grown to a significant cell density and exposed to zeocin, so as to select for cells expressing the zeocin marker in the presence of high levels of extracellular signaling. […] Under these conditions, cells were exposed to an agent such as ganciclovir that causes lethality in TK+ cells. This selection step eliminated those cells containing a nucleic acid construct that is expressed at significant levels even in low extracellular signaling conditions. The resulting cells were then used for further study.
An EGF, HIF responsive cell line was screened for compounds affecting the regulated gene expression. Thousands of compounds were screened.

[4] = test system: HT-29/Colon; assay: anti-proliferative effect, HT-29 colon cancer cell line; type: cell-based; settings: Homo sapiens
Excerpt: as §2
The ouabain concentration required to achieve an antiproliferative effect in cells of the HT29 colon cancer cell line (FIG. 20) is decreased five-fold in the presence of bicalutamide (Casodex).

[5] = test system: DU-145/Prostate; assay: anti-proliferative effect, DU-145 prostate cancer cell line; type: cell-based; settings: Homo sapiens
Excerpt: as §2

[6] = test system: Panc-1; assay: anti-proliferative effect, Panc-1 pancreatic cancer cell line; type: cell-based; settings: Homo sapiens; Panc-1, anti-proliferative
Excerpt: as §2

[7] = test system: A549/Lung; assay: anti-proliferative effect, A549 lung cancer cell line; type: cell-based; settings: Homo sapiens
Excerpt: as §2

[8] = test system: C-33A/Cervical; assay: anti-proliferative effect, C-33A cervical cancer cell line; type: cell-based; settings: Homo sapiens
Excerpt: as §2

[9] = test system: SK-MES/Lung; assay: anti-proliferative effect, SK-MES lung cancer cell line; type: cell-based
Excerpt: as §2

[10] = test system: MES-SA-DX5/Uterine; assay: anti-proliferative effect, MES-SA-DX5 uterine cancer cell line; type: cell-based; settings: Homo sapiens
Excerpt: as §2

[11] = test system: MCF-7/Breast; assay: anti-proliferative effect, MCF-7 breast cancer cell line; type: cell-based; settings: Homo sapiens, MCF7
Excerpt: as §2

[12] = test system: LnCap/Prostate; assay: anti-proliferative effect, LnCap prostate cancer cell line; type: cell-based; settings: Homo sapiens
Excerpt: as §2

[13] = test system: Caki-1/Renal; assay: anti-proliferative effect, Caki-1 renal cancer cell line; type: cell-based; settings: Homo sapiens
Excerpt: as §2

[14] = serum half-life
[15] = test system: PC3/Prostate; assay: anti-proliferative effect, PC3 prostate cancer cell line; type: cell-based
Excerpt: as §2

[16] = test system: MES-SA/Uterine; assay: anti-proliferative effect, MES-SA uterine cancer cell line; type: cell-based; settings: Homo sapiens
Excerpt: as §2

[17] = test system: HIF-2α protein; assay: level of HIF-2α protein in cancer cells; type: cell-based
[18] = test system: several different cancer cell lines; assay: proliferation of cancer cell lines (several lines, summary); type: cell-based; settings: range over cell lines, read-out: IC50 across several different cancer cell lines
Protocol: The IC50 measured for ouabain across several different cancer cell lines ranged from about 80 nM to about 300 nM. The concentration at which a cardiac glycoside is effective as part of an antiproliferative treatment may be further decreased by combination with an additional agent that negatively regulates HIF-responsive genes, such as a redox effector or a steroid signal modulator. For example, as shown herein, the concentration at which a cardiac glycoside (ouabain) is effective for inhibiting proliferation of cancer cells is decreased 5-fold by combination with a steroid signal modulator (Casodex). Therefore, in certain embodiments, the invention provides combination therapies of cardiac glycosides with, for example, steroid signal modulators and/or redox effectors. Additionally, cardiac glycosides may be combined with radiation therapy, taking advantage of the radiosensitizing effect that many cardiac glycosides have.

COc1cc2ncnc(Nc3ccc(F)c(Cl)c3)c2cc1OCCCN1CCOCC1 [Iressa]
EGF-responsive gene expression [1]: inhibited

O=C(Nc1ccc([N+](=O)[O-])cc1Cl)c1cc(Cl)ccc1O [Niclosamide, niclosamide]
IC50 [2]: 800 nM
effect on regulated reporter gene expression (screen) [3]: effective
IC50 [4]: 8000 nM
IC50 [5]: 5000 nM
IC50 [6]: 5000 nM
IC50 [7]: 1500 nM
IC50 [8]: 5000 nM
IC50 [9]: 2000 nM
IC50 [10]: 6000 nM
IC50 [11]: 2500 nM
IC50 [12]: 2000 nM
IC50 [13]: 1500 nM
serum half-life [14]: short
IC50 [15]: 5000 nM
IC50 [16]: 9000 nM
level of HIF-2α protein [17]: decrease

C[C@@H]1O[C@@H](O[C@H]2C[C@@H](O)[C@]3(CO)[C@H]4[C@H](O)C[C@]5(C)[C@@H](C6=CC(=O)OC6)CC[C@]5(O)[C@@H]4CC[C@]3(O)C2)[C@H](O)[C@H](O)[C@H]1O [Ouabain, ouabain]
IC50 [2]: 150 nM
required dose for inhibition of reporter activity relative to cardiotonic dose [3]: well below the dose required for ouabain as a cardiotonic agent
effect on regulated reporter gene expression (screen) [3]: effective
IC50 [4]: > 800 nM
IC50 [5]: 300 nM
IC50 [18]: 80 to 300 nM
IC50 [6]: 150 nM
IC50 [7]: 300 nM
IC50 [8]: 100 nM
IC50 [9]: 100 nM
IC50 [10]: 80 nM
IC50 [11]: 100 nM
IC50 [12]: 150 nM
IC50 [13]: 150 nM
IC50 [15]: 150 nM
IC50 [16]: 80 nM

CCCCC(CC)CNC(=N)NC(=N)NCCCCCCNC(=N)NC(=N)NCC(CC)CCCC (stereo not drawn) [alexidine dihydrochloride]
effect on regulated reporter gene expression (screen) [3]: effective

CC(C)/N=c1\cc2n(-c3ccc(Cl)cc3)c3ccccc3nc-2cc1Nc1ccc(Cl)cc1 [clofazimine]
effect on regulated reporter gene expression (screen) [3]: effective

Clc1ccccc1C(c1ccccc1)(c1ccccc1)n1ccnc1 [clotrimazole]
effect on regulated reporter gene expression (screen) [3]: effective

C/C=C(/C(=C/C)c1ccc(O)cc1)c1ccc(O)cc1 [dienestrol]
effect on regulated reporter gene expression (screen) [3]: effective

CC/C(=C(/CC)c1ccc(O)cc1)c1ccc(O)cc1 [diethylstilbestrol]
effect on regulated reporter gene expression (screen) [3]: effective

C[C@]12CC[C@H](O)C[C@H]1CC[C@@H]1[C@@H]2CC[C@]2(C)[C@@H](C3=CC(=O)OC3)CC[C@]12O [digitoxigenin]
effect on regulated reporter gene expression (screen) [3]: effective

C[C@H]1O[C@@H](O[C@H]2[C@@H](O)C[C@H](O[C@H]3[C@@H](O)C[C@H](O[C@H]4CC[C@@]5(C)[C@H](CC[C@@H]6[C@@H]5C[C@@H](O)[C@]5(C)[C@@H](C7=CC(=O)OC7)CC[C@]65O)C4)O[C@@H]3C)O[C@@H]2C)C[C@H](O)[C@@H]1O [digoxin]
effect on regulated reporter gene expression (screen) [3]: effective

Clc1ccc(COC(Cn2ccnc2)c2ccc(Cl)cc2Cl)cc1 (stereo not drawn) [econazole nitrate]
effect on regulated reporter gene expression (screen) [3]: effective

CC(=O)O[C@H]1C[C@H](O[C@H]2[C@@H](O)C[C@H](O[C@H]3[C@@H](O)C[C@H](O[C@H]4CC[C@@]5(C)[C@H](CC[C@@H]6[C@@H]5C[C@@H](O)[C@]5(C)[C@@H](C7=CC(=O)OC7)CC[C@]65O)C4)O[C@@H]3C)O[C@@H]2C)O[C@H](C)[C@H]1O[C@@H]1O[C@H](CO)[C@@H](O)[C@H](O)[C@H]1O [lanatoside C]
effect on regulated reporter gene expression (screen) [3]: effective

OC(c1cc(C(F)(F)F)nc2c(C(F)(F)F)cccc12)C1CCCCN1 (stereo not drawn) [mefloquine hydrochloride]
effect on regulated reporter gene expression (screen) [3]: effective

CC1=CC(=O)c2ccccc2C1=O [menadione]
effect on regulated reporter gene expression (screen) [3]: effective

CCCC(C(=O)OCCN(CC)CC)(c1ccccc1)c1ccccc1 [proadifen hydrochloride]
effect on regulated reporter gene expression (screen) [3]: effective
